The text below walks through data of patent US8084596B2, “Regulated apoptosis” (The Board of Trustees of the Leland Stanford Junior …, priority 1993, dated 2011).

Series [1] has as its target T1, MZF3E (Mus musculus, UniProt P24161).
T1 construct: expressed in transfected cells
As to the kind of experiment: NFAT-SEAP reporter via myristoylated chimeric CD3/FKBP12 (MZF3E) receptor in Jurkat T cells. In kind it is cell-based, human.

In the next series the test system is NFAT. As to the kind of experiment: NFAT reporter (secreted alkaline phosphatase) after cross-linking chimeric receptor TAC/TAC/Z with anti-TAC mAb in TAg Jurkat cells. The note with it: addition of 1 ng/ml FK506; TTZ receptor, bound anti-TAC mAb. The class given is cell-based, human. From the text:
The plasmid pSXNeo/IL2 (IL2-SX) (FIG. 1), which contains the placental secreted alkaline phosphatase gene under the control of human IL-2 promoter (−325 to +47; MCB(86) 6, 3042), and related plasmid variants (i.e. NFAT-SX, NF B-SX, OAP/Oct1-SX, and AP-1-SX) in which the reporter gene is under the transcriptional control of the minimal IL-2 promoter (−325 to −294 and -72 to −47) combined with synthetic oligomers containing various promoter elements (i.e. NFAT, NKB, OAP/Oct-1, and AP1, respectively), were made by three piece ligations of 1) pPL/SEAP (Berger, et al., Gene (1988) 66, 1) cut with SspI and HindIII; 2) pSV2/Neo (Southern and Berg, J. Mol. Appl. Genet. (1982) 1, 332) cut with NdeI, blunted with Klenow, then cut with Pvul; and 3) various promoter-containing plasmids (i.e. NFAT-CD8, B-CD8, cx121acZ-Oct-1, AP1-LUCIF3H, or cx151L2) described below) cut with PvuI and HindIII, NFAT-CD8 contains 3 copies of the NFAT-binding site (−286 to […]; Genes and Dev. (1990) 4, 1823) and cx12lacZ-Oct contains 4 copies of the OAP/Oct-1(ARRE-1) binding site (MCB, (1988) 8, 1715) from the human IL-2 enhancer; B-CD8 contains 3 copies of the NFB binding site from the murine light chain (EMBO (1990) 9, 4425) and AP1-LUCIF3H contains 5 copies of the AP-1 site (5′-TGA-[…]-3′ [SEQ ID NO:3]) from the metallothionen promoter. […]

Series [2] in a line: Immunosuppression / toxicity in cell culture. The class given is cell-based.
In series [3] the test system is GF2E or GF3E with NF3V1E (G5E4TCAT reporter). As to the kind of experiment: Transcriptional induction: CAT activity in Jurkat TAg cells transfected with GAL4-FKBP and FKBP-VP16 chimeras. In kind it is cell-based, human. The note with it: 1 μM ligand, 12 hours; samples 5 (GF2E, NF3V1E) and 6 (GF3E, NF3V1E) in the presence of ligand. Here is the method: Jurkat TAg cells were transfected with the indicated constructs (5 μg of each construct) by electroporation (960 μF, 250 v). After 24 hours, the cells were resuspended in fresh media and aliquoted. […] After 12 hours, the cells were washed and cellular extracts were prepared by repeated freeze-thaw. Chloramphenicol acetyltransferase (CAT) activity was measured by standard protocols. Molecular Cloning: A Laboratory Manual, Sambrook et al. eds. (1989) CSH Laboratory, pp. 16-59 ff. […]
GF2E or GF3E with NF3V1E (G5E4TCAT reporter), sequence (P62942 2-108 limits assumed): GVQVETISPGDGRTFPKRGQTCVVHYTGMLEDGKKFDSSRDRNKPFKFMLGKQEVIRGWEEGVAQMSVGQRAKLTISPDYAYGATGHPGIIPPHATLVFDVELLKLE

The next series concerns MZF3Eflu / MZF3Eflag. As to the kind of experiment: Coimmunoprecipitation of epitope-tagged chimeras (anti-Flag agarose) in Jurkat T cells. The class given is cell-based, human.
MZF3Eflu / MZF3Eflag, sequence (P62942 2-108 limits assumed): as above
Series [4] deals with T1, MZF3E. The series can be described thus: Protein-tyrosine phosphorylation and kinase recruitment in Jurkat cells stably transfected with MZF3E. In kind it is cell-based, human.
Procedure: Tyrosine phosphorylation after treatment of cells with either anti-CD3 MAb or FK1012 was detected using monoclonal alpha-phosphotyrosine antibodies. Whole cell lysates were analysed at varying times after stimulation.
The test system of another series is TAg-Jurkat cells. The series can be described thus: Inhibitory activity of drugs on ionomycin/PMA-stimulated TAg-Jurkat cells (β-galactosidase, MUG fluorescence). The class given is cell-based, human. Here is the method: Ionomycin (1 μm) and PMA (25 ng/ml) were added to 10^5 TAg-Jurkat cells. In addition, titrations of the various drugs were added. After 5 hours the cells were lysed in mild detergent (i.e. Triton X-100) and the extracts were incubated with the β-galactosidase substrate, MUG (methyl galactosidyl umbelliferone) for 1 hour. A glycine/EDTA stop buffer was added and the extracts assayed for fluorescence. Each data point obtained was the average of two samples and the experiment was performed several times with similar results.

T1 sequence (P24161 with tags, fused parts or gaps limits assumed): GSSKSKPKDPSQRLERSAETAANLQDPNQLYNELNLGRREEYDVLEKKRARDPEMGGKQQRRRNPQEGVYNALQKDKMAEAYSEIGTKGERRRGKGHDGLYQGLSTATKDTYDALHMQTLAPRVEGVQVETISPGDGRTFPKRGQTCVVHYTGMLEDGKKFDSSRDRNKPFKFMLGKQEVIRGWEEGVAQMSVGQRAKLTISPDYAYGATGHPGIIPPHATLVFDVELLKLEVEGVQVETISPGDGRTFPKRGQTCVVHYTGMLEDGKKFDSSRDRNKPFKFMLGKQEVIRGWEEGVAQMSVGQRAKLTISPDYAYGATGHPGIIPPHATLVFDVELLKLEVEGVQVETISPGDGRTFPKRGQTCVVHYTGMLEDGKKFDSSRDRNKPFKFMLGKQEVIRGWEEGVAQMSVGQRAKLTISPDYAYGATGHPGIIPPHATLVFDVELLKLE

`C=CC[C@@H]1/C=C(\C)C[C@H](C)C[C@H](OC)[C@H]2O[C@@](O)(C(=O)C(=O)N3CCCC[C@H]3C(=O)O[C@H](/C(C)=C/[C@@H]3CC[C@@H](O)[C@H](OC)C3)[C@H](C)[C@@H](O)CC1=O)[C@H](C)C[C@@H]2OC` [FK506, reference compound]: the “FK1012B stimulation of NFAT reporter” value at MZF3E [1] (addition of 1 ng/ml FK506) is listed as “dropped all stimulations to near background levels”. Also, the “alkaline phosphatase reporter activity due to NFAT” value in the series with NFAT is listed as “dropped all activity due to NFAT to background levels”.
Regarding `CO[C@H]1C[C@@H](C)C/C(C)=C/[C@@H](CCOC(=O)NCc2ccccc2)C(=O)C[C@H](O)[C@@H](C)[C@@H](/C(C)=C/[C@@H]2CC[C@@H](O)[C@H](OC)C2)OC(=O)[C@@H]2CCCCN2C(=O)C(=O)[C@]2(O)O[C@H]1[C@@H](OC)C[C@H]2C` [FK506-M], the “termination of FK1012-induced signaling (deaggregation)” value on MZF3E [1] was “FK1012-induced signaling can be terminated”. Also, in series [2], the toxicity entry was “nontoxic”.
As for “FK1012-A (p-xylylenediamine bridge) [FK1012A]”, the CAT activity entry in series [3] is given as “CAT activity present as expected”. The “dimerization of FKBP monomer constructs MZF1Eflu and MZF1Eflag” value with MZF3Eflu / MZF3Eflag is given as “also dimerized by FK1012A”. The “coimmunoprecipitation of MZF3Eflu with MZF3Eflag” value with MZF3Eflu / MZF3Eflag (1 μM, Jurkat T cells coexpressing both chimeras) was “MZF3Eflag interacts with MZF3Eflu and is coimmunoprecipitated”. Also, the “recruitment of kinase activity to the zeta-chain (in vitro kinase assay after immunoprecipitation)” value at MZF3E [4] was “resulted in the recruitment of kinase activity to the zeta-chain”.
In the case of “FK1012-B (diaminodecane-1,10 bridge) [FK1012B]”, the “stimulation by the compound itself” value in the series with TAg-Jurkat cells (control experiment) was “not stimulatory by itself”. Further, in the series on TAg-Jurkat cells (ionomycin 1 μm + PMA 25 ng/ml, highest concentration 5 μg/ml), the mitogen activity result is reported as “appears to augment mitogen activity slightly”.
